The target of this assay is KRasG12D (Homo sapiens, UniProt P01116, G12D). Description: KRAS inhibitory activity test, TR-FRET (inhibition of binding of KRasG12D to GTP, SOS/GTP nucleotide exchange). It is filed as biochemical. Conditions: read-out: IC50 values of the compounds for inhibiting KRAS enzymes, G12D. Here is the method: • 1. […] Reagent Preparation: • a. Storage Reagents:
Prepare a 1L solution by mixing 20mL of 1000mM HEPES, 20mL of 500mM EDTA, 10mL of 5M sodium chloride, 0.1mL of 100% Tween 20, and 949.9mL of water. Sterilize by filtration and store at 4°C.
Prepare a 1L solution by mixing 20mL of 1000mM HEPES, 10mL of 1000mM magnesium chloride, 30mL of 5M sodium chloride, 0.05mL of 100% Tween 20, and 939.95mL of water. Sterilize by filtration and store at 4°C. 3) KRAS/Bodipy GDP/Tb-SA Mixture: Mix 9.5 µL of 95 µM KRasG12D protein with 440.5 µL of KRAS nucleotide exchange buffer. Incubate at room temperature for 1 hour. Then, mix with 8.4 µL of 17.9 µM Tb-SA, 1.8 µL of 5 mM Bodipy GDP, and 9539.8 µL of KRAS experimental buffer to prepare […]. After mixing, incubate at room temperature for 6 hours and store at -80°C.
• 1) KRAS Enzyme Solution: Mix 73.3 µL of KRAS/Bodipy GDP/Tb-SA mixture with 2126.7 µL of KRAS experimental buffer to prepare a 2200 µL solution. • 2) SOS/GTP Mixture
c. Experimental Procedure: Mix 1.59 µL of 166 µM SOS protein with 198 µL of 100 mM... GTP and 0.41 µL KRAS buffer were prepared to a 2200 µL solution. The stock solution concentration of the control compound was 1 mM, and the stock solution concentration of the test compound was 10 mM. 9 µL of the control compound and the test compound were transferred to a 384-LDV plate. The compound on the LDV plate was 3-fold diluted 10-point using Bravo. 9 nL of the compound on the LDV plate was transferred to the experimental plate using ECHO. 3 µL of a 3 nM Kras/0.5 nM TB-SA/30 nM BodipyGDP mixture and 3 µL of Ras buffer were added to each well of the experimental plate using a Dragonfly autopilot. The plate was centrifuged at 1000 rpm for 1 minute. The plate was incubated at room temperature for 1 hour. 3 µL of 120 nM SOS/9 mM KRAS buffer was added to each well of the experimental plate using a Dragonfly autopilot. The […] was centrifuged at 1000 rpm for 1 minute; the plate was incubated at room temperature for 1 hour; the plate was read and the data were recorded using Envision; the data were analyzed using Excel and Xlfit to calculate the IC50of the test compound. "++++" indicates IC50≤ 10 nM; "+++" indicates 10 nM < IC50≤ 100 nM; "++" indicates 100 nM < IC50≤ 2000 nM; "+" indicates 2000 nM < IC50.
Regarding “7-(3-amino-2-fluoro-5-methyl-6-(trifluoromethyl)phenyl)-4-(1R,5S)-3,8-diazabicyclo [3.2.1]octane-3-yl)-2-(((2R,7AS)-2-fluorotetrahydro-1H-pyrrolazin-7a(5H)-yl)methox y)-7,8-dihydro-5H-thiopyrano[4,3-d]pyrimidine-6,6-dioxide [Compound 36]”, the IC50 is no more than 10 nM.

Turning to `C=C1CN2CCC[C@@]2(COc2nc3c(c(N4CC5CCC(C4)N5)n2)CS(=O)(=O)C(c2nc(N)cc(C)c2C(F)(F)F)C3)C1` (stereo partly drawn) [Compound 20, 7-(6-amino-4-methyl-3-(trifluoromethyl)pyridin-2-yl)-2-(((S)-2-(methylene)tetrahydro-1H-pyrrolazin-7a(5H)-yl)methoxy)-4-(3,8-diazabicyclo[3.2.1]octane-3-yl)-7,8-dihy dro-5H-thiopyrano[4,3-d]pyrimidine-6,6-dioxide], the IC50 is no more than 10 nM. In the case of `C=C1CN2CCC[C@@]2(COc2nc3c(c(N4CC5CCC(C4)N5)n2)CS(=O)(=O)C(c2cc(N)cc(C)c2C(F)(F)F)C3)C1` (some centres unmarked) [Compound 38] it was no more than 10 nM. In the case of `Cc1cc(N)c(F)c([C@@H]2Cc3nc(OC[C@@]45CCCN4C[C@H](F)C5)nc(N4C[C@H]5CC[C@@H](C4)N5)c3CS2(=O)=O)c1C(F)(F)F` [Compound 1A, (7S)-7-(3-amino-2-fluoro-5-methyl-6-(trifluoromethyl)phenyl)-4-((1R,5S)-3,8-diazabicyclo[3.2.1]octane-3-yl)-2-(((2R,7AS)-2-fluorotetrahydro-1H-pyrrolazin-7a(5H)-yl)methoxy)-7,8-dihydro-5H-thiopyrano[4,3-d]pyrimidine 6,6-Dioxide] it was no more than 10 nM; in that of `Cc1cc(N)c(F)c([C@H]2Cc3nc(OC[C@@]45CCCN4C[C@H](F)C5)nc(N4CCC[C@@](C)(O)C4)c3CS2(=O)=O)c1C(F)(F)F` [Compound 5B, (7R)-7-(3-amino-2-fluoro-5-methyl-6-(trifluoromethyl)phenyl)-2-(((2R,7AS)-2-fluorotetrahydro-1H-pyrrolazin-7a(5H)-yl)methoxy)-4-((R)-3-hydroxy-3-methylpiperidin-1-yl)-7,8-dihydro-5H-thiopyrano[4,3-d]pyrimidine-6,6-dioxide], no more than 10 nM; in that of `Cc1cc(N)c(F)c([C@@H]2Cc3nc(OC[C@@]45CCCN4C[C@H](F)C5)nc(N4C[C@H]5CC[C@@H](C4)N5)c3CS2(=O)=O)c1C(F)(F)F` [Compound 30A, (7S)-7-(3-amino-2-fluoro-5-methyl-6-(trifluoromethyl)phenyl)-4-((1R,5S)-3,8-diazabicyclo[3.2.1]octane-3-yl)-2-(((2R,7AS)-2-fluorotetrahydro-1H-pyrrolazin-7a(5H)-yl)methoxy)-7,8-dihydro-5H-thiopyrano[4,3-d]pyrimidine 6,6-Dioxide], no more than 10 nM. On to `Cc1cc(N)nc([C@H]2Cc3nc(OC[C@@]45CCCN4C[C@H](F)C5)nc(N4CCC[C@@](C)(O)C4)c3CS2(=O)=O)c1C(F)(F)F` [Compound 8B, (7R)-7-(6-amino-4-methyl-3-(trifluoromethyl)pyridin-2-yl)-2-(((2R,7AS)-2-fluorotetrahydro-1H-pyrrolazin-7a(5H)-yl)methoxy)-4-((R)-3-hydroxy-3-methylpiperidin-1-yl) -7,8-dihydro-5H-thiopyrano[4,3-d]pyrimidine-6,6-dioxide], for which the IC50 fell in the range of 10 to 100 nM. As for `Cc1cc(N)nc([C@@H]2Cc3nc(OC[C@@]45CCCN4CC(=CF)C5)nc(N4CC5CCC(C4)N5)c3CS2(=O)=O)c1C(F)(F)F` [Compound 19A, (7S)-7-(6-amino-4-methyl-3-(trifluoromethyl)pyridin-2-yl)-2-(((S)-2-(fluoromethylene)tetrahydro-1H-pyrrolazin-7a(5H)-yl)methoxy)-4-(3,8-diazabicyclo[3.2.1]octane-3-y 1)-7,8-dihydro-5H-thiopyrano[4,3-d]pyrimidine-6,6-dioxide], the IC50 is no more than 10 nM. The figure for `CC#Cc1cc(N)cc(C2Cc3nc(OC[C@@]45CCCN4C/C(=C\F)C5)nc(N4CC5CCC(C4)N5)c3CS2(=O)=O)c1C(F)(F)F` (some centres unmarked) [Compound 32] is no more than 10 nM.

For `Cc1cc(N)c(F)c([C@@H]2Cc3nc(OC[C@@]45CCCN4CC(=C(F)F)C5)nc(N4CC5CCC(C4)N5)c3CS2(=O)=O)c1C(F)(F)F` [Compound 10A, (7S)-7-(3-amino-2-fluoro-5-methyl-6-(trifluoromethyl)phenyl)-4-(3,8-diazabicyclo[3. 2.1]octane-3-yl)-2-(((S)-2-(difluoromethylene)tetrahydro-1H-pyrrolazin-7a(5H)-yl)methoxy)-7,8-dihydro-5H-thiopyrano[4,3-d]pyrimidine-6,6-dioxide], the half-maximal inhibitory concentration (IC50) is no more than 10 nM. In the case of `Cc1cc(O)nc([C@@H]2Cc3nc(OC[C@@]45CCCN4C[C@H](F)C5)nc(N4C[C@H]5CC[C@@H](C4)N5)c3CS2(=O)=O)c1C(F)(F)F` [Compound 4A, (7S)-4-((1R,5S)-3,8-diazabicyclo[3.2.1]octane-3-yl)-2-(((2R,7AS)-2-fluorotetrahydro-1H-pyrrolazin-7a(5H)-yl)methoxy)-7-(6-hydroxy-4-methyl-3-(trifluoromethyl)pyridin-2-yl)-7,8-dihydro-5H-thiopyrano[4,3-d]pyrimidine-6,6-dioxide] it was no more than 10 nM; in that of “7-(3-amino-2-fluoro-5-methyl-6-(trifluoromethyl)phenyl)-4-(1R,5S)-3,8-diazabicyclo [3.2.1]octane-3-yl)-2-(((2R,7AS)-2-fluorotetrahydro-1H-pyrrolazin-7a(5H)-yl)methox y)-7,8-dihydro-5H-thiopyrano[4,3-d]pyrimidine-6,6-dioxide [Compound 30]”, no more than 10 nM; in that of `Cc1cc(N)c(F)c([C@@H]2Cc3nc(OC[C@@]45CCCN4C[C@H](F)C5)nc(N4C[C@H]5CC[C@@H](C4)N5)c3CS2(=O)=O)c1C(F)(F)F` [Compound 38A, (7S)-7-(3-amino-2-fluoro-5-methyl-6-(trifluoromethyl)phenyl)-4-((1R,5S)-3,8-diazabicyclo[3.2.1]octane-3-yl)-2-(((2R,7AS)-2-fluorotetrahydro-1H-pyrrolazin-7a(5H)-yl)methoxy)-7,8-dihydro-5H-thiopyrano[4,3-d]pyrimidine 6,6-Dioxide], no more than 10 nM. The figure for `Cc1cc(N)c(F)c([C@@H]2Cc3nc(OC[C@@]45CCCN4C[C@H](F)C5)nc(N4C[C@H]5CC[C@@H](C4)N5)c3CS2(=O)=O)c1C(F)(F)F` [Compound 34A, (7S)-7-(3-amino-2-fluoro-5-methyl-6-(trifluoromethyl)phenyl)-4-((1R,5S)-3,8-diazabicyclo[3.2.1]octane-3-yl)-2-(((2R,7AS)-2-fluorotetrahydro-1H-pyrrolazin-7a(5H)-yl)methoxy)-7,8-dihydro-5H-thiopyrano[4,3-d]pyrimidine 6,6-Dioxide] is no more than 10 nM; for `Cc1cc(N)c(F)c([C@@H]2Cc3nc(OC[C@@]45CCCN4C[C@H](F)C5)nc(N4C[C@H]5CC[C@@H](C4)N5)c3CS2(=O)=O)c1C(F)(F)F` [Compound 33A, (7S)-7-(3-amino-2-fluoro-5-methyl-6-(trifluoromethyl)phenyl)-4-((1R,5S)-3,8-diazabicyclo[3.2.1]octane-3-yl)-2-(((2R,7AS)-2-fluorotetrahydro-1H-pyrrolazin-7a(5H)-yl)methoxy)-7,8-dihydro-5H-thiopyrano[4,3-d]pyrimidine 6,6-Dioxide] it is no more than 10 nM; for `CC#Cc1cc(N)c(F)c([C@@H]2Cc3nc(OC[C@@]45CCCN4CC(=C(F)F)C5)nc(N4CC5CCC(C4)N5)c3CS2(=O)=O)c1C(F)(F)F` [Compound 23A, (7S)-7-(3-amino-2-fluoro-5-(prop-1-yn-1-yl)-6-(trifluoromethyl)phenyl)-4-(3,8-diazabicyclo[3.2.1]octane-3-yl)-2-(((S)-2-(difluoromethylene)tetrahydro-1H-pyrrolazin-7a(5H)-yl)methoxy)-7,8-dihydro-5H-thiopyrano[4,3-d]pyrimidine-6,6-dioxide] it is no more than 10 nM.

On to `Cc1cc(N)nc([C@@H]2Cc3nc(OC[C@@]45CCCN4CC(=C(F)F)C5)nc(N4CC5CCC(C4)N5)c3CS2(=O)=O)c1C(F)(F)F` [Compound 18A, (7S)-7-(6-amino-4-methyl-3-(trifluoromethyl)pyridin-2-yl)-2-(((S)-2-(difluoromethylene)tetrahydro-1H-pyrrolazin-7a(5H)-yl)methoxy)-4-(3,8-diazabicyclo[3.2.1]octane-3-yl)-7,8-dihydro-5H-thiopyrano[4,3-d]pyrimidine-6,6-dioxide], for which the 50% inhibitory concentration (IC50) was no more than 10 nM.

The values above are taken from EP4818178A1, “PREPARATION AND USE OF PYRIMIDOTHIOPYRANONE KRAS MUTANT PROTEIN INHIBITOR” (Ya Therapeutics Inc, priority 2024, dated 2025).
